Patent US7652047B2, “Phenylamino isothiazole carboxamidines as MEK inhibitors” (Ardea Biosciences, Inc., priority 2005, dated 2010)
pIC50: −log10 of the molar value. Read-outs that look alike come from different tables or passages of the source.

Biological target: T1, MEK1^CA (human GST-MEK1, constitutively active, Ser218Asp and Ser222Asp) (Homo sapiens, UniProt Q02750, S218D/S222D)
T1 construct: GST; made in house; host or cells: Escherichia coli
Experiment: MEK1 enzymatic activity assay (MEK1^CA / ERK2 / MBP, [γ-33P]ATP incorporation)
Format: biochemical
How it was run: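 Cascade assay: 25 µl reactions with 0.002 nmol E. coli-expressed GST-MEK1 S218D/S222D, 0.02 nmol His-tagged mouse ERK2, 0.25 nmol MBP, 0.25 nmol unlabeled ATP and 0.1 µCi [γ-33P]ATP. Compound preincubated 30 min at ambient temperature with MEK1/ERK2; stopped with TCA, 33P-labelled protein filter-captured and scintillation-counted.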

[1] = Table 1, compounds of formula I, read-out: Avg IC50
[2] = Table 2, Ar1-A contains an amido or indolo group, read-out: IC 50

T1 sequence (Q02750 whole entry S218D/S222D): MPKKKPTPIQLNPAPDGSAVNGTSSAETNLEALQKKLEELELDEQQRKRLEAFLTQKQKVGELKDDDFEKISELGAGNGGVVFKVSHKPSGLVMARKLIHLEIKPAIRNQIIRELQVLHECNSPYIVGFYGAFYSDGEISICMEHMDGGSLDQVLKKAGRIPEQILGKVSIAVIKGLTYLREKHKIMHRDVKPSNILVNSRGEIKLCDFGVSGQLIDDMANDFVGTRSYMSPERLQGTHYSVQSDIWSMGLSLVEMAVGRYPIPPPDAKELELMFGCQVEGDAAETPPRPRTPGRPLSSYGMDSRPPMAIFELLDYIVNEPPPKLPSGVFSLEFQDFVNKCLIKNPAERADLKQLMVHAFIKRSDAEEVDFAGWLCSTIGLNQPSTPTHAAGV

Compound	pIC50 [1]	further results
CNC(=N)c1c(O)nsc1Nc1ccc(Oc2ccc(F)cc2)c(Br)c1 [compound 230]	< 6.30	–
N=C(NC1CCCCCC1)c1c(O)nsc1Nc1ccc(Oc2ccccc2)cc1 [Cpd 23]	7.00 to 9.00	–
CCCNC(=N)c1c(O)nsc1Nc1ccc(Oc2ccccc2)cc1 [compound 201]	6.30 to 7.00	–
N=C(NCCc1cccc(F)c1)c1c(O)nsc1Nc1ccc(Oc2ccccc2)cc1 [Cpd 17]	6.30 to 7.00	–
CC(C)NC(=N)c1c(O)nsc1Nc1ccc(C(=O)N2CCN(C)CC2)cc1 [E-19]	–	pIC50 [2]: < 6.00
Cc1cccc(Oc2ccc(Nc3snc(O)c3C(=N)NC(C)CO)cc2)c1 (stereo not drawn) [compound 289]	7.00 to 9.00	–
N=C(NCC(O)CO)c1c(O)nsc1Nc1cc(C(F)(F)F)cc(C(F)(F)F)c1 (stereo not drawn) [compound 67]	< 6.30	–
CC(C)NC(=N)c1c(O)nsc1Nc1ccc(Oc2cccc(F)c2F)nc1 [compound 429]	6.30 to 7.00	–
N=C(NN1CCOCC1)c1c(O)nsc1Nc1ccc(Oc2ccccc2)cc1 [Cpd 6]	7.00 to 9.00	–
N=C(NCCCO)c1c(O)nsc1Nc1ccc(Oc2ccccc2)cc1 [compound 31]	7.00 to 9.00	–
CC(CO)NC(=N)c1c(O)nsc1Nc1ccc(Oc2cc(C(F)(F)F)ccc2Cl)cc1F (stereo not drawn) [compound 394]	7.00 to 9.00	–
CN(C)CCNC(=N)c1c(O)nsc1Nc1ccc(Oc2ccccc2)cc1 [compound 147]	6.30 to 7.00	–
N=C(NCCN1CCOCC1)c1c(Nc2ccc(Oc3ccccc3)cc2)s[nH]c1=O [Cpd 26]	< 6.30	–
Cc1ccccc1Oc1ccc(Nc2snc(O)c2C(=N)NC(C)CO)cc1 (stereo not drawn) [compound 300]	7.00 to 9.00	–
CCOC(=O)c1ccc(Oc2ccc(Nc3snc(O)c3C(=N)NC(C)CO)cc2)cc1 (stereo not drawn) [compound 497]	7.00 to 9.00	–
Cc1ccc(Oc2ccc(Nc3snc(O)c3C(=N)NC(C)CO)cc2)cc1 (stereo not drawn) [compound 247]	6.30 to 7.00	–
N=C(NCc1cccc2ccccc12)c1c(O)nsc1Nc1ccc(Oc2ccccc2)cc1 [compound 45]	7.00 to 9.00	–
N=C(NCCCCO)c1c(O)nsc1Nc1ccc(C(=O)NCCCCO)cc1 [E-15]	–	pIC50 [2]: < 6.00
CC(C)N(O)C(=N)c1c(O)nsc1Nc1ccc(Oc2ccccc2)cc1 [compound 144]	7.00 to 9.00	–
N=C(NCCO)c1c(O)nsc1Nc1ccc(Oc2ccccc2)cc1 [compound 33]	7.00 to 9.00	–
Oc1nsc(Nc2ccc(Oc3ccccc3)cc2)c1-c1noc(-c2ccccc2)n1 [compound 149]	< 6.30	–

Compound	pIC50 [1]	further results
CC(C)NC(=N)c1c(O)nsc1Nc1ccc(Oc2cccc(C(F)(F)F)c2F)cc1 [compound 353]	7.00 to 9.00	–
CC(CO)NC(=N)c1c(O)nsc1Nc1ccccc1Oc1ccccc1 (stereo not drawn) [compound 439]	< 6.30	–
N/C(=N\CC1CCCCC1)c1c(O)nsc1Nc1ccccc1C(=O)NCC1CCCCC1 [E-1]	–	pIC50 [2]: < 6.00
CC(CO)NC(=N)c1c(O)nsc1Nc1ccc(Oc2ccc(F)cc2)c(F)c1 (stereo not drawn) [compound 393]	7.00 to 9.00	–
Cc1ccc(Nc2sncc2C(=N)NC2CCCC2)cc1 [compound 56]	< 6.30	–
COC(=O)c1cccc(Nc2snc(O)c2C(=N)NC(C)C)c1C [compound 479]	< 6.30	–
Cc1cc(Oc2cc(F)cc(F)c2)ccc1Nc1snc(O)c1C(=N)NCC(O)CO (stereo not drawn) [compound 466]	7.00 to 9.00	–
CCOC(=O)c1ccc(Oc2ccc(Nc3snc(O)c3C(=N)NC(C)C)cc2)cc1 [compound 485]	6.30 to 7.00	–
Cc1cc(C)cc(Oc2ccc(Nc3snc(O)c3C(=N)NC(C)C)cc2)c1 [compound 267]	7.00 to 9.00	–
Cc1ccc(Oc2ccc(Nc3snc(O)c3C(=N)NC(C)C)cc2)cn1 [compound 259]	< 6.30	–
CC(C)NC(=N)c1c(O)nsc1Nc1ccc(Oc2cccc(C(F)(F)F)c2Cl)cc1 [compound 269]	7.00 to 9.00	–
CCOC(=O)c1cccc(Nc2snc(O)c2C(=N)NC(C)CO)c1 (stereo not drawn) [compound 489]	< 6.30	–
Cc1cc(Oc2cccc(F)c2F)ccc1Nc1snc(O)c1C(=N)N(O)C(C)C [compound 501]	6.30 to 7.00	–
Cc1cc(C#N)cc(C)c1Oc1ccc(Nc2snc(O)c2C(=N)NC(C)C)cc1Cl [compound 285]	< 6.30	–
Cc1ccc(Oc2ccc(Nc3snc(O)c3C(=N)NCC3CCCCC3)cc2)cn1 [compound 124]	6.30 to 7.00	–
COc1ccc(Oc2ccc(Nc3snc(O)c3C(=N)NCC3CCCCC3)cc2)cc1 [compound 141]	6.30 to 7.00	–
CC(C)NC(=N)c1c(O)nsc1Nc1ccc(Oc2cc(F)cc(F)c2Cl)c(F)c1 [compound 328]	7.00 to 9.00	–
Cc1cc(Nc2snc(O)c2C(=N)NC(C)C)ccc1Oc1cc(F)ccc1Cl [compound 380]	6.30 to 7.00	–
N=C(NCC(O)CO)c1c(O)nsc1Nc1ccc(-c2nc3ccccc3[nH]2)cc1 (stereo not drawn) [compound 512]	< 6.30	–
CC(C)NC(=N)c1c(O)nsc1Nc1ccc(Oc2cc(Cl)ccc2Cl)cc1 [compound 313]	< 6.30	–
COc1cccc(F)c1Oc1ccc(Nc2snc(O)c2C(=N)NC(C)C)cc1 [compound 270]	< 6.30	–

Compound	pIC50 [1]	further results
Cc1cccc(C)c1Oc1ccc(Nc2snc(O)c2C(=N)NC(C)CO)cc1 (stereo not drawn) [compound 282]	< 6.30	–
CCOC(=O)c1cccc(Nc2snc(O)c2C(=N)NCC(O)O)c1 [compound 498]	6.30 to 7.00	–
N=C(NCCO)c1c(O)nsc1Nc1ccc(Oc2ccccc2Cl)cc1 [compound 213]	7.00 to 9.00	–
CC(C)NC(=N)c1c(O)nsc1Nc1ccc(Oc2ccc(Cl)cc2Cl)c(F)c1 [compound 320]	7.00 to 9.00	–
CC(C)NC(=N)c1c(O)nsc1Nc1ccc(Oc2cc(F)cc(C(F)(F)F)c2)cc1 [compound 358]	6.30 to 7.00	–
CC(CO)NC(=N)c1c(O)nsc1Nc1ccc(Oc2ccc(Br)c3ccccc23)cc1 (stereo not drawn) [compound 337]	7.00 to 9.00	–
CCC(CO)NC(=N)c1c(O)nsc1Nc1ccc(Oc2ccccc2)cc1 (stereo not drawn) [compound 153]	6.30 to 7.00	–
CNC(=N)c1c(O)nsc1Nc1ccc(Oc2ccccc2)cc1 [compound 198]	7.00 to 9.00	–
CC(CO)NC(=N)c1c(O)nsc1Nc1ccc(Oc2cc(Cl)ccc2Cl)nc1 (stereo not drawn) [compound 434]	7.00 to 9.00	–
Cc1cccc(C)c1Oc1ccc(Nc2snc(O)c2C(=N)NC(C)C)cc1 [compound 271]	< 6.30	–
CC(C)NC(=N)c1c(O)nsc1Nc1ccc(C2CCCCC2)cc1 [compound 170]	6.30 to 7.00	–
CCC(CO)NC(=N)c1c(O)nsc1Nc1ccc(Oc2cccc(F)c2F)cc1C (stereo not drawn) [compound 504]	6.30 to 7.00	–
CC(=O)Oc1nsc(Nc2ccc(Oc3ccccc3)cc2)c1C(=N)NC(C)C [compound 185]	6.30 to 7.00	–
Cc1ccc(Oc2ccc(Nc3snc(O)c3C(=N)NCC3CCCCC3)cc2)cc1 [drawing 823]	–	pIC50 (Table 4, R' is (CH2)1 or 2-G, read-out: IC50): 7.00 to 9.00
CC(C)NC(=N)c1c(O)nsc1Nc1cc(Cl)cc(Cl)c1 [compound 224]	6.30 to 7.00	–
Cc1ccc(Oc2ccc(Nc3snc(O)c3C(=N)NCC3CCCCC3)cc2)cc1 [compound 109]	7.00 to 9.00	–
CC(O)CNC(=N)c1c(O)nsc1Nc1ccc(Oc2cc(F)cc(F)c2)cc1 (stereo not drawn) [compound 422]	7.00 to 9.00	–
N=C(NCC1CCCCC1)c1c(O)nsc1Nc1ccc(Oc2ccc(F)cc2)cc1 [compound 142]	7.00 to 9.00	–
N=C(NCC(O)c1cccc(O)c1)c1c(O)nsc1Nc1ccc(Oc2ccccc2)cc1 (stereo not drawn) [compound 166]	7.00 to 9.00	–
CCOC(=O)N1CCC(NC(=N)c2c(O)nsc2Nc2ccc(Oc3ccccc3)cc2)CC1 [compound 30]	6.30 to 7.00	–
N=C(NCC(O)CO)c1c(O)nsc1Nc1ccc(CO)cc1 (stereo not drawn) [compound 64]	< 6.30	–

Compound	pIC50 [1]	further results
N=C(NCC1CCCCC1)c1c(O)nsc1Nc1ccc(/N=N/c2ccccc2)cc1 [compound 128]	6.30 to 7.00	–
CC(C)NC(=N)c1c(O)nsc1Nc1ccc(Oc2cccc(Br)c2)cc1 [compound 250]	7.00 to 9.00	–
COCCCNc1snc(O)c1C(=N)NCCOc1ccccc1 [compound 112]	< 6.30	–
N=C(NCCO)c1c(O)nsc1Nc1ccc(Oc2cc(F)cc(F)c2)cc1 [compound 411]	6.30 to 7.00	–
CN(C)CCNC(=N)c1c(O)nsc1Nc1ccc(Oc2ccc(Cl)cc2Cl)cc1 [compound 425]	6.30 to 7.00	–
N=C(NCC(O)CO)c1c(O)nsc1Nc1ccccc1F (stereo not drawn) [compound 69]	< 6.30	–
CC(C)NC(=N)c1c(O)nsc1Nc1ccc(Oc2ccc(F)cc2Cl)cc1C(F)(F)F [compound 407]	7.00 to 9.00	–
CC(C)NC(=N)c1c(O)nsc1Nc1ccc(Oc2ccccc2F)cc1 [compound 356]	7.00 to 9.00	–
CC(C)CC(C)NC(=N)c1c(O)nsc1Nc1ccc(Oc2ccccc2)cc1 (stereo not drawn) [compound 35]	6.30 to 7.00	–
Cc1cc(Oc2ccc(Cl)cc2F)ccc1Nc1snc(O)c1C(=N)NC(C)C [compound 402]	7.00 to 9.00	–
CC(CO)NC(=N)c1c(O)nsc1Nc1ccc(Oc2c(F)ccc(F)c2Cl)cc1 (stereo not drawn) [compound 323]	6.30 to 7.00	–
CC(CO)NC(=N)c1c(O)nsc1Nc1ccc(Oc2cccc(Cl)c2)cc1 (stereo not drawn) [compound 252]	7.00 to 9.00	–
Cc1cc(Oc2cc(Cl)ccc2Cl)ccc1Nc1snc(O)c1C(=N)NC(C)C [compound 460]	7.00 to 9.00	–
N=C(NCCC1=CCCCC1)c1c(O)nsc1Nc1ccc(Oc2ccccc2)cc1 [Cpd 13]	7.00 to 9.00	–
N=C(NCCCO)c1c(O)nsc1NCC1CCCCC1 [compound 125]	< 6.30	–
Cc1ccc2cc(Nc3snc(O)c3C(=N)NCC3CCCCC3)ccc2n1 [compound 106]	< 6.30	–
CC(CO)NC(=N)c1c(O)nsc1Nc1ccc(Oc2ccc(F)cc2)c(Cl)c1 (stereo not drawn) [compound 392]	6.30 to 7.00	–
CC(C)NC(=N)c1c(O)nsc1Nc1ccc(Oc2cccc(C(F)(F)F)c2Cl)c(F)c1 [compound 373]	7.00 to 9.00	–
CCC(CO)NC(=N)c1c(O)nsc1Nc1ccc(Oc2cc(F)cc(F)c2)cc1C (stereo not drawn) [compound 468]	7.00 to 9.00	–
CC(C)NC(=N)c1c(O)nsc1Nc1ccc(Oc2ccc(S(C)(=O)=O)cc2)cc1 [compound 486]	< 6.30	–
CCC(C)CNC(=N)c1c(O)nsc1Nc1ccc(Oc2ccccc2)cc1 (stereo not drawn) [compound 52]	7.00 to 9.00	–
